Test results: ChEMBL document CHEMBL1201862, “PubChem BioAssay data set” (2004)
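A five-concentration, 48-hour dose response in 96-well plates underlies each endpoint, interpolated linearly between surrounding concentrations. GI50: concentration for 50% inhibition of growth.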 Active and inactive are the calls of the source. No stated cut-off is given here; in the data, active = GI50 up to about 1.1 µM and inactive = higher.

How the values were obtained:
Experiment in all cases: DTP human tumour cell line panel, 48 h
CCRF-CEM = tested on: CCRF-CEM
DU-145 = tested on: DU-145
HCT-116 = tested on: HCT-116
HT-29 = tested on: HT-29
KM12 = tested on: KM12
LOX IMVI = tested on: LOX IMVI
MCF7 = tested on: MCF7
MDA-MB-231 = tested on: MDA-MB-231
MDA-MB-435 = tested on: MDA-MB-435
NCI-H226 = tested on: NCI-H226
NCI-H23 = tested on: NCI-H23
OVCAR-3 = tested on: OVCAR-3
PC-3 = tested on: PC-3
RXF 393 = tested on: RXF 393
TK-10 = tested on: TK-10
UACC-257 = tested on: UACC-257
UACC-62 = tested on: UACC-62
UO-31 = tested on: UO-31
RPMI-8226 = tested on: RPMI-8226
SR = tested on: SR

Row | Compound | GI50 (CCRF-CEM) | GI50 (DU-145) | GI50 (HCT-116) | GI50 (HT-29) | GI50 (KM12) | GI50 (LOX IMVI) | GI50 (MCF7) | GI50 (MDA-MB-231) | GI50 (MDA-MB-435) | GI50 (NCI-H226) | GI50 (NCI-H23) | GI50 (OVCAR-3) | GI50 (PC-3) | GI50 (RXF 393) | GI50 (TK-10) | GI50 (UACC-257) | GI50 (UACC-62) | GI50 (UO-31) | GI50 (RPMI-8226) | GI50 (SR)
1 | CCOC(=O)c1[nH]cc(C)c1-c1cccn1-c1ccc(Cl)cc1[N+](=O)[O-] | 25.6 µM (inactive) | 35.1 µM (inactive) | 16.7 µM (inactive) | 16.2 µM (inactive) | 20.1 µM (inactive) | 17.5 µM (inactive) | 30.7 µM (inactive) | 8.24 µM (inactive) | 19.6 µM (inactive) | 16.7 µM (inactive) | 23.9 µM (inactive) | 12 µM (inactive) | 20.1 µM (inactive) | 13.7 µM (inactive) | 14.4 µM (inactive) | 20.1 µM (inactive) | 18.2 µM (inactive) | 15.7 µM (inactive) | – | –
2 | CN1Cc2cc3cc4c(cc3nc2N(C)C1)OCCO4 | > 100 µM (inactive) | – | > 100 µM (inactive) | > 100 µM (inactive) | > 100 µM (inactive) | > 100 µM (inactive) | > 100 µM (inactive) | > 100 µM (inactive) | > 100 µM (inactive) | > 100 µM (inactive) | – | – | > 100 µM (inactive) | > 100 µM (inactive) | > 100 µM (inactive) | > 100 µM (inactive) | > 100 µM (inactive) | – | 54.7 µM (inactive) | –
3 | Cc1c(C(=O)O)c2cc3ccccc3cc2c(=O)n1C | – | – | – | > 10 µM (inactive) | > 10 µM (inactive) | > 10 µM (inactive) | > 10 µM (inactive) | > 10 µM (inactive) | > 10 µM (inactive) | > 10 µM (inactive) | > 10 µM (inactive) | > 10 µM (inactive) | > 10 µM (inactive) | > 10 µM (inactive) | > 10 µM (inactive) | > 10 µM (inactive) | > 10 µM (inactive) | > 10 µM (inactive) | – | > 10 µM (inactive)
4 | C/C(=N\N=C(\N)OB(F)F)c1ccccn1 | 43.4 µM (inactive) | > 100 µM (inactive) | 58.5 µM (inactive) | 47.3 µM (inactive) | > 100 µM (inactive) | 28.2 µM (inactive) | 79.4 µM (inactive) | 24.6 µM (inactive) | > 100 µM (inactive) | 40.8 µM (inactive) | > 100 µM (inactive) | 92 µM (inactive) | – | 9.33 µM (inactive) | 59.7 µM (inactive) | > 100 µM (inactive) | 82.2 µM (inactive) | 71.4 µM (inactive) | – | 76.6 µM (inactive)
5 | COc1cc([C@H]2c3[nH]c4ccccc4c3C[C@H]3COC(=O)N32)cc(OC)c1O | 0.0209 µM (active) | – | 0.0344 µM (active) | 0.0228 µM (active) | 0.0202 µM (active) | < 0.01 µM (active) | < 0.01 µM (active) | 0.0408 µM (active) | < 0.01 µM (active) | 0.422 µM (active) | 0.0748 µM (active) | < 0.01 µM (active) | 0.0378 µM (active) | 0.0405 µM (active) | 0.807 µM (active) | > 100 µM (inactive) | 0.0209 µM (active) | 0.246 µM (active) | 0.0404 µM (active) | 0.0132 µM (active)
6 | CCCCc1ccc(NC(=N)N)cc1 | 16.9 µM (inactive) | 41.4 µM (inactive) | 24.9 µM (inactive) | 25.8 µM (inactive) | 18.9 µM (inactive) | 40 µM (inactive) | 19.7 µM (inactive) | 28.9 µM (inactive) | 40.1 µM (inactive) | 23.7 µM (inactive) | 40.2 µM (inactive) | 24.5 µM (inactive) | 23.8 µM (inactive) | – | 22.1 µM (inactive) | 33.7 µM (inactive) | 37.3 µM (inactive) | 33.6 µM (inactive) | 17 µM (inactive) | –
7 | Cc1cc(OC2OC(CO)C(O)C(O)C2O)ccc1O (stereo unspecified) | > 100 µM (inactive) | > 10 µM (inactive) | > 100 µM (inactive) | > 100 µM (inactive) | > 100 µM (inactive) | > 100 µM (inactive) | > 100 µM (inactive) | > 100 µM (inactive) | > 100 µM (inactive) | – | > 100 µM (inactive) | > 100 µM (inactive) | > 100 µM (inactive) | > 100 µM (inactive) | > 100 µM (inactive) | > 100 µM (inactive) | > 100 µM (inactive) | > 100 µM (inactive) | > 100 µM (inactive) | –
8 | O=C(CC(C(=O)c1ccco1)c1ccco1)c1ccco1 (stereo unspecified) | 71.1 µM (inactive) | > 100 µM (inactive) | > 100 µM (inactive) | > 100 µM (inactive) | > 100 µM (inactive) | > 100 µM (inactive) | > 100 µM (inactive) | 78.9 µM (inactive) | > 100 µM (inactive) | > 100 µM (inactive) | > 100 µM (inactive) | > 100 µM (inactive) | – | > 100 µM (inactive) | > 100 µM (inactive) | > 100 µM (inactive) | > 100 µM (inactive) | 33.1 µM (inactive) | > 100 µM (inactive) | > 100 µM (inactive)
